In US20070041934A1, “Dendrimer based compositions and methods of using the same” (priority 2005, published 2007):

Key:
KB cells = assay: Cell growth inhibition (XTT assay / total cell protein); assay type: cell-based, human
Description: Cell culture and treatment. KB cells were maintained in folate-free medium containing 10% serum (See, e.g., Quintana et al, Pharm. Res. 19, 1310 (2002)) to provide extracellular FA similar to that found in human serum. Cells were plated in 12-well plates for uptake studies, in 24-well plates for cell growth analysis, and in 96-well plates for XTT assay. Cells were rinsed with FA-free medium containing dialyzed serum and incubated at 37° C. with dendrimer-drug conjugates for the indicated time periods and concentrations. KB cells were also maintained in RPMI medium containing 2 μM FA to obtain cells which express low FAR.
Evaluation of dendrimer cytotoxicity. Cell growth was determined by assay of the total protein in lysates of treated cells using a bicinchoninic acid reagent (PIERCE, and by XTT assay, using a kit from Roche.
Because the binding of the conjugate to KB cells reaches maximal uptake within 1 h (Quintana et al, 2002. Pharmaceutical Research 19: 1310-1316.), the effect of the G5-FI-FA-MTX on cell growth was initially tested by pre-incubation of cells with the conjugate for 1 h, followed by incubation in a drug-free medium for 5 d. […] When the cells were pre-incubated with dendrimers for 4 h, there was a modest decrease of about 10% in cell growth as determined by XTT assay. The cytotoxicity measurements were therefore done by incubation with the dendrimer for a minimum of 24 h, a pre-incubation time period shown to induce significant cytotoxicity.
Time course and dose dependent inhibition of cell growth. Previous studies have shown that MTX-induced cytotoxicity is detectable in vitro only if the medium is completely deprived of FA (See, e.g., Sobrero & Bertino, Int. J. Cell Cloning 4, 51 (1986)). The effect of the trifunctional dendrimers on cell growth was tested in cells incubated in a FA-deficient medium. Cells were treated with 300 nM conjugates (equivalent of 1500 nM MTX) or 1500 nM free MTX for 1-4 days, and cell proliferation was determined by estimation of cellular protein content. Cells were treated for 2 days with different concentrations of the conjugates or free MTX (the conjugate concentration is given as MTX equivalents, with 5 MTX per dendrimer molecule). KB cells which express high and low FAR were incubated with 30 nM of the dendrimers for 1 hr at 37° C., rinsed, and the fluorescence of cells was determined by flow cytometric analysis (See. e.g., FIG. 21, left panel). Pre-incubation with 50 μM free FA for 30 min totally prevents cellular binding and uptake of the polymer conjugates (See. e.g., FIG. 21, left panel).
The inhibition of cell growth induced by the conjugates was also tested by XTT assay which is based on the conversion of XTT to formazan by the active mitochondria of live cells (See, e.g., Roehm et al, J Immunol Methods 142, 257 (1991)).
As growth inhibition induced by free MTX was higher than with the equimolar concentrations of MTX in the G5-FITC-FA-MTX below 1 μM (See, e.g., FIG. 21), it was tested whether the FA moiety in the G5-FITC-FA-MTX may be rescuing the cells from MTX-induced cytotoxicity. As the G5-FITC-FA-MTX preparation contained equimolar concentrations of MTX and FA, the effect of similar concentrations of free MTX and free FA on the inhibition of cell growth was determined. […] The cells were rinsed to remove the drugs and incubated with fresh medium for an additional 6 d, and total cell protein was determined. […]

[1] = Toxicity of dendrimer conjugates and free methotrexate in mice; conditions: cumulative doses 33.3 and 21.7 mg/kg
Description: (§1) Delivery of targeted nanoparticle therapeutic. Twice weekly, SCID mice with s.c. KB xenografts, starting on day 4 after tumor implantation, received via the tail vein an injection of either targeted or nontargeted conjugate containing methotrexate, a conjugate without methotrexate, free methotrexate, or saline as a control. The compounds were delivered in a 0.2 mL volume of saline per 20 g of mouse. The single dose of methotrexate delivered each time equaled 0.33 mg/kg. The higher doses of 1.67 and 3.33 mg/kg free methotrexate were also tested. The conjugates were delivered at equimolar concentration of methotrexate calculated based on the number of methotrexate molecules present in a nanoparticle. The conjugate without methotrexate was delivered at equimolar concentration of dendrimer. In the initial trial, six groups of mice with five mice in each group received up to 15 injections. In the follow-up trial, mice received up to 28 injections dependent on their survival. The body weights of the mice were monitored throughout the experiment as an indication of adverse effects of the drug. Histopathology of multiple organs was done at the termination of each trial and each time mouse had to be euthanized due to toxic effects or tumor burden. Tissues from lung, heart, liver, pancreas, spleen, kidney, and tumor were analyzed.
Toxicity of dendrimer conjugates. […]

[2] = mouse, in vivo
Description: as §1
Toxicity of dendrimer conjugates. […]

s.c. human KB xenografts = assay: Targeted drug delivery to tumor, tumor growth and survival; assay type: in vivo, SCID mice; conditions: for effect on tumor growth: first trial
Description: Delivery of targeted nanoparticle therapeutic.
Statistical methods. Means, SD, and SE of the data were calculated. Differences between the experimental groups and the control groups were tested using Student's-Newman-Keuls' test and Ps<0.05 were considered significant.
Targeted drug delivery to tumor cells through the folate receptor. The efficacy of different doses of conjugates was tested on SCID CB-17 mice bearing s.c. human KB xenografts and was compared with equivalent and higher doses of free methotrexate. Mice were maintained on the folic acid-deficient diet for 3 weeks before injection of the KB tumor cells to achieve circulating levels of folic acid that approach those in human serum and to prevent down-regulation of folate receptors on tumor xenografts (See, Mathias et al., J Nucl Med 29, 1579 (1998)). Six groups of SCID mice with five mice in each group were injected s.c. on one flank with 5×10^6 KB cells in 0.2 mL PBS suspension. The highest total dose of G5-FI-FA-MTX therapeutic used equals 55.0 mg/kg and is equivalent to a 5.0 mg/kg total cumulative dose of free methotrexate (FIG. 29). The therapeutic dose of the conjugate was compared with three cumulative doses of free methotrexate equivalent to 33.3, 21.7, and 5.0 mg/kg accumulated in 10 to 15 injections based on mouse survival. Saline and the conjugate without methotrexate (G5-FI-FA) were used as controls.

Row | Structure (SMILES) | reversal of MTX-induced growth-arrest by free FA (KB cells; 150 nM FA with 150 nM MTX, 24 h, then 6 d fresh medium, total cell protein) | increase of cell growth above that of the control cells (KB cells; 50 μM free FA with conjugate or free MTX 24 h, then 5 days, XTT) [%] | day of trial by which dose became lethal [1] [days] | growth inhibition by XTT assay (KB cells; 1, 2 or 3 days) | inhibition of cell growth (KB cells; FA-deficient medium, time course and dose dependence (FIGS. 21 and 22)) | growth inhibition compared with equimolar MTX in G5-FITC-FA-MTX (KB cells; below 1 μM) | histopathology of the liver [2] | effect on tumor growth (s.c. human KB xenografts; cumulative dose equivalent to 5.0 mg/kg methotrexate (or equimolar dendrimer)) | effect on tumor growth (s.c. human KB xenografts; cumulative doses 33.3 and 21.7 mg/kg) | day of trial by which all mice died (s.c. human KB xenografts; second 99-day trial) [days] | survivors at the termination of the trial (s.c. human KB xenografts; second 99-day trial)
1 | Nc1nc2ncc(CNc3ccc(C(=O)N[C@@H](CCC(=O)O)C(=O)O)cc3)nc2c(=O)[nH]1 [FA, folic acid] | almost completely reversed the growth-arrest | 20 | – | – | – | – | – | – | – | – | –
2 | CN(Cc1cnc2nc(N)nc(N)c2n1)c1ccc(C(=O)N[C@@H](CCC(=O)O)C(=O)O)cc1 [MTX, methotrexate] | – | – | 32 to 36 | time-dependent cytotoxicity | inhibited cell growth in a time- and dose-dependent fashion | higher | advanced liver lesions, collections of inflammatory cells, and periportal inflammation | no effect on tumor growth | affecting tumor growth | ≤ 66 | no mice surviving
